How the values were obtained:
false cleavers [1] = test: Test Example 4: herbicidal effect by soil treatment (Table 19, symbol Q); assay type: in vivo, false cleavers (Galium spurium)
Procedure, shortened: (§1)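 Three weeks of greenhouse growth at 25° C. to 30° C. followed a uniform surface spray of water-diluted emulsion at a predetermined herbicide amount. Seeds had been sown beforehand under about 1.5 cm of sterilized diluvial soil. Grading followed criteria set out in an earlier test.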

oval-leafed pondweed [2] = test: Test Example 1: herbicidal activity, application before weed generation under submerged conditions (Table 16, symbol C); assay type: in vivo, oval-leafed pondweed (Monochoria vaginalis)
Procedure, shortened: (§2)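 Alluvial soil was flooded to 4 cm depth, weed seeds were sown mixed and 2.5-leaf rice seedlings were transplanted. On sowing day, the compound's emulsion, diluted in water to a set dose, was applied to the water surface. Plants grew at 25–30 °C and were scored 0–5 after three weeks.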

velvetleaf = test: Test Example 5: herbicidal effect by foliage application, plastic box (Table 20, symbol M); assay type: in vivo, velvetleaf (Abutilon theophrasti); conditions: foliage application; for effect on velvetleaf (M): 3 weeks after application; for herbicidal effect on M: velvetleaf / M: velvetleaf, herbicidal effect (criteria 0-5): evaluated three weeks after application; for M: velvetleaf, herbicidal effect (criteria 0-5): AAH 320 g/ha
Procedure, shortened: (§3)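 Plants sown in sterilized diluvial soil and grown 14 days in a greenhouse at 25° C to 30° C, then sprayed on the foliage with the compound's emulsion diluted in water to a predetermined herbicide amount. Injury to weeds and crops scored three weeks after application on a visual rating scale.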

blackgrass = test: Test Example 4: herbicidal effect by soil treatment (Table 19, symbol J); assay type: in vivo, blackgrass (Alopecurus myosuroides); conditions: for herbicidal effect rating, J: blackgrass: 320 g/ha; for herbicidal effect on J: blackgrass: amount of applied herbicide 320 g/ha
Procedure, shortened: as §1

Japanese bulrush = test: Test Example 1: herbicidal activity, application before weed generation under submerged conditions (Table 16, symbol B); assay type: in vivo, Japanese bulrush (Schoenoplectus juncoides)
Procedure, shortened: as §2

Chinese sprangletop = test: Test Example 3: herbicidal effect by foliage application, Wagner pot (Table 18, symbol D); assay type: in vivo, chinese sprangletop (Leptochloa chinensis); conditions: for herbicidal effect on D: Chinese sprangletop: amount of applied herbicide 320 g/ha
Procedure, shortened: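 Plants were sown in alluvial soil held under 0.1–0.5 cm standing water and grown 14 days in a greenhouse at 25–30 °C. An emulsifiable formulation, water-diluted to the set dose, was then sprayed onto the foliage, and effects were scored three weeks later using previously defined criteria.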

oval-leafed pondweed [3] = test: Test Example 2: herbicidal activity, application during weed generation under submerged conditions (Table 17, symbol C); assay type: in vivo, oval-leafed pondweed (Monochoria vaginalis); conditions: application during weed generation, submerged conditions
Procedure, shortened: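 Steps: fill Wagner pots with alluvial soil; add water to give 4 cm depth; sow the species mixed; grow under glass at 25–30° C.; at 1–2 leaves apply water-diluted emulsion formulation to the water surface at a fixed herbicide amount; score after 3 weeks.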

persian speedwell = test: Test Example 4: herbicidal effect by soil treatment (Table 19, symbol R); assay type: in vivo, Persian speedwell (Veronica persica); conditions: for herbicidal effect rating, R: persian speedwell: 320 g/ha
Procedure, shortened: as §1

green foxtail = test: Test Example 5: herbicidal effect by foliage application, plastic box (Table 20, symbol G); assay type: in vivo, green foxtail (Setaria viridis); conditions: foliage application; for effect on green foxtail (G): 3 weeks after application; for herbicidal effect on G: green foxtail / G: green foxtail, herbicidal effect (criteria 0-5): evaluated three weeks after application; for G: green foxtail, herbicidal effect (criteria 0-5): AAH 320 g/ha
Procedure, shortened: as §3

windgrass = test: Test Example 4: herbicidal effect by soil treatment (Table 19, symbol L); assay type: in vivo, windgrass (Apera spica-venti); conditions: for herbicidal effect rating, L: windgrass: 320 g/ha; for herbicidal effect on L: windgrass: amount of applied herbicide 320 g/ha
Procedure, shortened: as §1

late watergrass = test: Test Example 1: herbicidal activity, application before weed generation under submerged conditions (Table 16, symbol A); assay type: in vivo, late watergrass (Echinochloa oryzicola)
Procedure, shortened: as §2

false cleavers [4] = test: Test Example 5: herbicidal effect by foliage application, plastic box (Table 20, symbol Q); assay type: in vivo, false cleavers (Galium spurium); conditions: foliage application, evaluated three weeks after application; for herbicidal effect on Q: false cleavers: 320 g/ha
Procedure, shortened: as §3

chickweed = test: Test Example 5: herbicidal effect by foliage application, plastic box (Table 20, symbol P); assay type: in vivo, common chickweed (Stellaria media); conditions: foliage application, evaluated three weeks after application; for herbicidal effect on P: chickweed: 320 g/ha; for P: chickweed, herbicidal effect (criteria 0-5): AAH 320 g/ha
Procedure, shortened: as §3

[5] = amount of applied herbicide 320 g/ha

Row | SMILES | Herbicidal effect on C: oval-leafed pondweed (grade 0-5) (oval-leafed pondweed [2]; 320 g/ha applied herbicide) | Herbicidal effect on B: Japanese bulrush (grade 0-5) (Japanese bulrush; 320 g/ha applied herbicide) | herbicidal effect on D (Chinese sprangletop), rating 0-5 (Chinese sprangletop; 320 g/ha) | herbicidal effect rating, C: oval-leafed pondweed (oval-leafed pondweed [3]; AAH 320 g/ha) | Herbicidal effect on A: late watergrass (grade 0-5) (late watergrass; 320 g/ha applied herbicide) | herbicidal effect on M: velvetleaf (velvetleaf; 320 g/ha) | herbicidal effect rating, J: blackgrass (blackgrass) | herbicidal effect rating, R: persian speedwell (persian speedwell) | herbicidal effect on Q: false cleavers (false cleavers [4]) | herbicidal effect on G: green foxtail (green foxtail; 320 g/ha) | herbicidal effect rating, L: windgrass (windgrass) | herbicidal effect on P: chickweed (chickweed) | M: velvetleaf, herbicidal effect (criteria 0-5) (velvetleaf) | herbicidal effect on J: blackgrass (blackgrass) | herbicidal effect on D: Chinese sprangletop (Chinese sprangletop) | G: green foxtail, herbicidal effect (criteria 0-5) (green foxtail) | herbicidal effect on L: windgrass (windgrass) | P: chickweed, herbicidal effect (criteria 0-5) (chickweed) | further results
1 | C#CC(C)Oc1ccc(-c2sc3ccccc3c2-c2c(O)c(C)nn(C)c2=O)cc1 (racemic) [1-217] | 3 (Herbicidal rate of 40% or more and less than 70%) | 5 (Herbicidal rate of 90% or more (almost completely withered)) | 5 (Herbicidal rate of 90% or more (almost completely withered)) | 3 (Herbicidal rate of 40% or more and less than 70%) | 4 (Herbicidal rate of 70% or more and less than 90%) |  |  |  |  |  |  |  |  |  |  |  |  |  | Q: false cleavers, herbicidal effect rating (false cleavers [1]; AAH 320 g/ha): 3 (Herbicidal rate of 40% or more and less than 70%); effect on velvetleaf (M) (velvetleaf; 320 g/ha): 5 (Herbicidal rate of 90% or more (almost completely withered)); J: blackgrass, herbicidal effect rating (blackgrass; AAH 320 g/ha): 0 (Herbicidal rate of 5% or less (almost no effect)); R: persian speedwell, herbicidal effect rating (persian speedwell; AAH 320 g/ha): 5 (Herbicidal rate of 90% or more (almost completely withered)); effect on green foxtail (G) (green foxtail; 320 g/ha): 4 (Herbicidal rate of 70% or more and less than 90%); L: windgrass, herbicidal effect rating (windgrass; AAH 320 g/ha): 0 (Herbicidal rate of 5% or less (almost no effect))
2 | C#CC(C)Oc1ccc(-c2sc3ccccc3c2-c2c(OCOCCOC)c(C)nn(C)c2=O)cc1 (racemic) [1-218] |  |  |  |  |  |  |  |  |  |  |  |  |  |  |  |  |  |  | Q: false cleavers, herbicidal effect rating (false cleavers [1]; AAH 187 g/ha): 0 (Herbicidal rate of 5% or less (almost no effect)); Herbicidal effect on C: oval-leafed pondweed (grade 0-5) (oval-leafed pondweed [2]; 100 g/ha applied herbicide): 0 (Herbicidal rate of 5% or less (almost no effect)); effect on velvetleaf (M) (velvetleaf; 187 g/ha): 4 (Herbicidal rate of 70% or more and less than 90%); J: blackgrass, herbicidal effect rating (blackgrass; AAH 187 g/ha): 0 (Herbicidal rate of 5% or less (almost no effect)); Herbicidal effect on B: Japanese bulrush (grade 0-5) (Japanese bulrush; 100 g/ha applied herbicide): 3 (Herbicidal rate of 40% or more and less than 70%); herbicidal effect on D (Chinese sprangletop), rating 0-5 (Chinese sprangletop; 100 g/ha): 4 (Herbicidal rate of 70% or more and less than 90%); herbicidal effect rating, C: oval-leafed pondweed (oval-leafed pondweed [3]; AAH 100 g/ha): 4 (Herbicidal rate of 70% or more and less than 90%); R: persian speedwell, herbicidal effect rating (persian speedwell; AAH 187 g/ha): 5 (Herbicidal rate of 90% or more (almost completely withered)); effect on green foxtail (G) (green foxtail; 187 g/ha): 5 (Herbicidal rate of 90% or more (almost completely withered)); L: windgrass, herbicidal effect rating (windgrass; AAH 187 g/ha): 0 (Herbicidal rate of 5% or less (almost no effect)); Herbicidal effect on A: late watergrass (grade 0-5) (late watergrass; 100 g/ha applied herbicide): 4 (Herbicidal rate of 70% or more and less than 90%)
3 | CCOc1cc(F)ccc1-c1sc2ccc(F)cc2c1-c1c(O)c(C)nn(C)c1=O [2-084] | 2 (Herbicidal rate of 20% or more and less than 40%) | 1 (Herbicidal rate of 5% or more and less than 20%) | 4 (Herbicidal rate of 70% or more and less than 90%) | 3 (Herbicidal rate of 40% or more and less than 70%) | 1 (Herbicidal rate of 5% or more and less than 20%) | 5 (Herbicidal rate of 90% or more (almost completely withered)) | 2 (Herbicidal rate of 20% or more and less than 40%) | 5 (Herbicidal rate of 90% or more (almost completely withered)) | 5 (Herbicidal rate of 90% or more (almost completely withered)) | 5 (Herbicidal rate of 90% or more (almost completely withered)) | 1 (Herbicidal rate of 5% or more and less than 20%) | 5 (Herbicidal rate of 90% or more (almost completely withered)) |  |  |  |  |  |  | 
4 | Cc1nn(C)c(=O)c(-c2c(-c3ccc4c(c3)OCCO4)sc3ccc(F)cc23)c1O [2-092] | 2 (Herbicidal rate of 20% or more and less than 40%) | 3 (Herbicidal rate of 40% or more and less than 70%) | 4 (Herbicidal rate of 70% or more and less than 90%) | 4 (Herbicidal rate of 70% or more and less than 90%) | 2 (Herbicidal rate of 20% or more and less than 40%) | 5 (Herbicidal rate of 90% or more (almost completely withered)) | 0 (Herbicidal rate of 5% or less (almost no effect)) | 5 (Herbicidal rate of 90% or more (almost completely withered)) | 4 (Herbicidal rate of 70% or more and less than 90%) | 4 (Herbicidal rate of 70% or more and less than 90%) | 0 (Herbicidal rate of 5% or less (almost no effect)) | 5 (Herbicidal rate of 90% or more (almost completely withered)) |  |  |  |  |  |  | 
5 | Cc1nn(C)c(=O)c(-c2c(-c3ccc(OC(F)F)cc3)sc3ccc(F)cc23)c1OC(=O)OCCCl [2-293] | 4 (Herbicidal rate of 70% or more and less than 90%) | 5 (Herbicidal rate of 90% or more (almost completely withered)) |  | 4 (Herbicidal rate of 70% or more and less than 90%) | 5 (Herbicidal rate of 90% or more (almost completely withered)) |  |  |  |  |  |  |  | 5 (Herbicidal rate of 90% or more (almost completely withered)) | 5 (Herbicidal rate of 90% or more (almost completely withered)) | 3 (Herbicidal rate of 40% or more and less than 70%) | 5 (Herbicidal rate of 90% or more (almost completely withered)) | 4 (Herbicidal rate of 70% or more and less than 90%) | 5 (Herbicidal rate of 90% or more (almost completely withered)) | herbicidal effect on R: persian speedwell (persian speedwell; [5]): 5 (Herbicidal rate of 90% or more (almost completely withered)); Q: false cleavers, herbicidal effect (criteria 0-5) (false cleavers [4]; AAH 320 g/ha): 5 (Herbicidal rate of 90% or more (almost completely withered))
6 | Cc1nn(C)c(=O)c(-c2c(-c3ccc(O)cc3)sc3ccc(F)cc23)c1O [2-337] | 3 (Herbicidal rate of 40% or more and less than 70%) | 3 (Herbicidal rate of 40% or more and less than 70%) |  | 0 (Herbicidal rate of 5% or less (almost no effect)) | 4 (Herbicidal rate of 70% or more and less than 90%) |  |  |  |  |  |  |  | 3 (Herbicidal rate of 40% or more and less than 70%) | 0 (Herbicidal rate of 5% or less (almost no effect)) | 0 (Herbicidal rate of 5% or less (almost no effect)) | 0 (Herbicidal rate of 5% or less (almost no effect)) | 0 (Herbicidal rate of 5% or less (almost no effect)) | 5 (Herbicidal rate of 90% or more (almost completely withered)) | herbicidal effect on Q: false cleavers (false cleavers [1]; [5]): 0 (Herbicidal rate of 5% or less (almost no effect))

— US20230085307A1, “PYRIDAZINONE COMPOUND AND HERBICIDE” (NISSAN CHEMICAL CORPORATION, priority 2019, published 2023)
